Assays:
[1] = target: T1, human CaSR (Homo sapiens, UniProt P41180); assay: Functional whole cell assay (modulation of human CaSR), IP1 accumulation in CHO-K1 cells; assay type: cell-based; details: CHO-K1 cells stably expressing human CaSR, final Ca2+ 1.9 mM, IP1 readout; concentration producing 50% of maximum agonistic response
T1 sequence (P41180 20-1078): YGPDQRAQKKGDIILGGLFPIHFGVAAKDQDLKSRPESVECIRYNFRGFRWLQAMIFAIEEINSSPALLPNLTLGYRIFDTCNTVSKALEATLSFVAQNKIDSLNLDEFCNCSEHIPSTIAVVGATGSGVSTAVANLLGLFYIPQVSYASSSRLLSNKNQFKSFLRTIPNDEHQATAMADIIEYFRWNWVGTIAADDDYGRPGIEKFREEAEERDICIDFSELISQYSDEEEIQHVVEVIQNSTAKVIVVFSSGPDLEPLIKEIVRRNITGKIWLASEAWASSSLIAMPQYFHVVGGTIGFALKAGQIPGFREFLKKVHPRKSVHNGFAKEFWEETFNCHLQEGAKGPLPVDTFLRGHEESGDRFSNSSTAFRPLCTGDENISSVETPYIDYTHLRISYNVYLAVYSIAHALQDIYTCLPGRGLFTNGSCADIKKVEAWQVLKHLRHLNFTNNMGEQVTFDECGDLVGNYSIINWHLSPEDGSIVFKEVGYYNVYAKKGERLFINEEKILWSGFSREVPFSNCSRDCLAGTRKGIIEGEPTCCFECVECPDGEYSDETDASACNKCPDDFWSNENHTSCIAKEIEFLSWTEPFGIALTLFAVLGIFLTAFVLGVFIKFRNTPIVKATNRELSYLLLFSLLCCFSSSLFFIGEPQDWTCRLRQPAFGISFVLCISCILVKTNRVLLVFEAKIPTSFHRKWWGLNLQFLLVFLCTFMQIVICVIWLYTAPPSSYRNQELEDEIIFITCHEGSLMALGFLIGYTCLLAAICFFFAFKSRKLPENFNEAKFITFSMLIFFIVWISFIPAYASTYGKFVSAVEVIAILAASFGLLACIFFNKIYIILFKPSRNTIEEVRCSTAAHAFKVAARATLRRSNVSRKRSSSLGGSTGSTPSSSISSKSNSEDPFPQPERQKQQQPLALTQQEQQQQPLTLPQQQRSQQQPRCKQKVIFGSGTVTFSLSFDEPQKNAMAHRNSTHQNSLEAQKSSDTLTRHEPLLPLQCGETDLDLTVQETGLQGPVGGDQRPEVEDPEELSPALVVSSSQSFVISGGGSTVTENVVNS
From the text: The assay investigates a compound's functional ability to act as a biological positive modulator on the human CaSR. Activation of the receptor expressed on CHO-K1 cells is detected through the G alpha q pathway, the activation of phospholipase C and the accumulation of intracellular inositol phosphate (IP) as described earlier [Sandrine Ferry, Bruno Chatel, Robert H. Dodd, Christine Lair, Danielle Gully, Jean-Pierre Maffrand, and Martial Ruat. Effects of Divalent Cations and of a Calcimimetic on Adrenocorticotropic Hormone Release in Pituitary Tumor Cells. Biochemical and biophysical research Communications 238, 866-873 (1997)]. The human CaSR is stably expressed on a CHO-K1 cell clone, stimulated with a basal level of calcium and challenged with the tested compound. The level of IP1 is determined using the IP-One Terbium htrf kit (Cisbio, France). CHO-K1 cells not transfected with the CaSR fail to elicit an IP1 response upon calcium and/or compound stimulation.
The ORF coding for the human CaSR (genebank: NM_000388) was acquired from Invitrogen Corp, USA and subsequently cloned into the mammalian expression vector pCDA3.1.
CHO-K1 cells were transfected using Lipofectamine according to manufacturer's protocol (400.000 cells/well were seeded in a 6-well plate and transfected after 24 hours using 2 μg DNA and 5 μl lipofectamine). After another 24 hours the cells were detached, seeded and subjected to 1 mg/ml of G-418. Following 7 days growth single clones were picked, the CaSR expression evaluated using the 5C10 antibody against CaSR, the clones with the highest expression were selected and tested for functional response. The preferred clone was cultured according to standard procedures described in ATCC (American Type Culture Collection) protocols for CHO-K1 with the addition of 500 μg/ml G-418.
On the assay day, cells were thawed, harvested and resuspended to 4*10^6 cells/ml in stimulation buffer (containing: Hepes 10 mM, MgCl2 0.5 mM, KCl 4.2 mM, NaCl 146 mM, glucose 5.5 mM, LiCl 50 mM, BSA 0.5% at pH 7.4). Ten μl cell solution was pipetted into wells of a white 384-well plate (Perkin Elmer Optiplate) containing 2 μl compound diluted in assay buffer (containing: Hepes 10 mM, MgCl2 0.5 mM, KCl 4.2 mM, NaCl 146 mM, glucose 5.5 mM, LiCl 50 mM, CaCl2 11.4 mM at pH 7.4), resulting in a final Ca^2+ concentration of 1.9 mM. After compound stimulation for 1 hour at 37° C. and 15 min at room temperature, 10 ul of IP-One assay detection reagent (prepared as described by the IP-One assay kit manufacturer) was added and the plate was incubated for another 1 hour at room temperature. Finally the plate was read using a Perkin Elmer EnVision, according to the protocol supplied by the IP-One assay kit manufacturer. The FRET ratio was calculated by dividing the 665 nm emission signal with that of the 615 nm.
The molar concentration of a compound that produces 50% of the maximum agonistic response (the […] value) is calculated according to the equation “General sigmoidal curve with Hill slope, a to d” (Equation 1). This model describes a sigmoidal curve with an adjustable baseline. The equation can be used to fit curves where response is either increasing or decreasing with respect to the independent variable, X. […]
y=(a−d)/(1+(x/c)̂b)+d Equation 1 x=concentration of tested compound […]
a=min response as compound concentration approaches 0 d=max response as concentration of tested compound is increasing […]
b=Hill coefficient or curve slope

[2] = Clearance in human liver microsomes; assay type: in vitro ADME; details: hepatic extraction ratio; test compound 0.5 μM, microsomes 0.5 mg/mL, NADPH 1 mM, 37° C.
Protocol: Test compound concentration is 0.5 μM, microsome concentration is 0.5 mg/mL and NADPH concentration is 1 mM in the incubation. The described method is performed by the liquid handling system Tecan RSP and is based on a 96-well format.
Control incubations with test compound without NADPH and test compound without microsomes are conducted to investigate non-CYP mediated metabolism and stability in phosphate buffer at 37° C., respectively.
The human liver microsomal suspension in phosphate buffer is mixed with NADPH. The mixture is pre-heated (7 min) to 37° C. Test compound is added, and the mixture is incubated for 30 minutes. Incubations are run in duplicate. Samples are withdrawn at predetermined stop times and mixed with methanol containing internal standard (IS) to terminate all enzyme activity and precipitate proteins. A control without NADPH (to detect problems such as nonspecific protein binding, heat instability or non-CYP mediated metabolism) and a control without microsomes (for assessing compound stability in the absence of any active enzymes) are tested.
The percentage of organic solvent in the incubations is less than 1%. Careful inspections of reagents are performed prior to the start of any experiment to ensure all reagents are in solution.
The 96-well plates are centrifuged. Test compound depletion, using a compound specific LC/MS/MS method, is determined.
The logarithm of the peak area ratios of test compound to internal standard (IS) versus incubation time is plotted in a graph.
The rate constant (k) (min^−1) of test compound depletion is calculated from the linear part of the curve and the half-time (t1/2) in minutes can be calculated from the rate constant (Eq. 2).
Intrinsic clearance (CIint) (mL/min/mg protein) is calculated from: […]
where c is the microsomal protein concentration in mg/mL.
Conversion to apparent clearance (CIapp) (mL/min/kg) is done by Eq. 4:
CIapp=CIint×a×b/d (Eq. 4)
where a, b and d are the scaling factors for normalizing CIint to human body weight.
a: 45 (microsomal protein/liver weight (mg/g))
b: 1500 (liver weight (g))
Hepatic clearance (CIh) (mL/min/kg) based on the well-stirred model is described as followed:
CIh=(CIapp·Q)/(CIapp+Q) (Eq. 5)
where Q is the liver blood flow in mL/min/kg (20 in humans).
Dividing hepatic clearance with liver blood flow, the hepatic extraction ratio (%) can be calculated:
Apparent clearance below approximately 10 mL/min/kg human body weight (corresponding to extraction ratio of approx. 33%) is considered as low clearance (high metabolic stability). Apparent intrinsic clearance above approximately 60 mL/min/kg human body weight (corresponding to extraction ratio of approx. 75%) is considered as high clearance (low metabolic stability).

SMILES: C[C@@H](N[C@H]1CC[C@@H](c2ccc(OCC(=O)NC3CCNCC3)cc2)C1)c1cccc(Cl)c1 [Compound 102, 2-[4-[(1R,3S)-3-[[(1R)-1-(3-Chlorophenyl)ethyl]amino]-cyclopentyl]-phenoxy]-N-(4-piperidyl)-acetamide]
- EC50 [1]: 200 to 1000 nM
- Clearance (% Eh) in human liver microsomes [2]: A (A: Eh < 33%)

— patent publication US20130261132A1, “CALCIUM-SENSING RECEPTOR-ACTIVE COMPOUNDS” (LEO PHARMA A/S, priority 2010, published 2013)
